Assay [1] deals with human scalp. Description: Pilot clinical study: hair curvature index after topical scalp application. The conditions noted are these: for visible effect on hair shape: after 5 weeks of treatment; for Effectiveness (% of volunteers) / Hair shape change (% of control), max. / Hair shape change (% of control), mean: 5 weeks, 3 times per week; for Hair shape change (% of control), max. / Hair shape change (% of control), mean: curvature index. The class given is in vivo. The text has this: This example discloses the treatment of human scalp with a formulation containing a modulation bioactive agent for straightening the hair.
The bioactive agent used in this example was Midodrine hydrochloride as straightening agent in a formulation containing water, a thickener agent with emulsifying properties - Lecigel™, a preservative agent – Euxyl® PE 9010, denaturing alcohol and Transcutol® CG.
The volunteers for the application test of the formulation with the modulation bioactive agent Midodrine hydrochloride had curly hair.
Each volunteer received the formulation without the agent Midodrine hydrochloride and the formulation with the agent Midodrine hydrochloride.
(§1) On each volunteer, the hair was shaved in two different posterior scalp locations, of approximately 1 cm^2 each, and the formulations were applied for 5 weeks, three times a week.
The formulations with and without Midodrine were applied directly on scalp. Ten microliters per 1 cm^2 of the control formulation without Midodrine hydrochloride were applied to one of the two shaved scalp areas while ten microliters per 1 cm^2 of the formulation with Midodrine hydrochloride were applied to the other shaved scalp area.
After the 15th application of formulations with and without the modulation agent, a final picture was taken showing both sites of application, the growth rate of the hairs was measured, and some hairs were plucked for further tests.
The curvature index was determined after the clinical cosmetic study conclusion, using hairs collected from the scalp areas treated with and without the modulation bioactive agent in a formulation. The control was the hair collected from scalp area treated with the formulation without the modulation bioactive ingredient.
The effect on curvature index was calculated according to the following formula: […]
Each hair was individually measured over a white paper (hair in a relaxed form) and a force was applied in order to keep the hair straight (under stress) and, in this way, measure the length of hair in stressed form.
This example discloses the treatment of human scalp with a formulation containing a modulation bioactive agent for curling the hair.
The modulation bioactive agent used in this example was Topiramate as curling agent in a formulation containing water, a thickener agent with emulsifying properties - Lecigel™, a preservative agent - Euxyl® PE 9010, denaturing alcohol and Transcutol® CG.
The volunteers for the application test of the formulation with the modulation agent Topiramate had straight hair.
Each volunteer received the formulation without the agent Topiramate and the formulation with the agent Topiramate.
The formulations with and without Topiramate were applied directly on scalp. Ten microliters per 1 cm^2 of the control formulation without Topiramate were applied to one of the two shaved scalp areas while ten microliters per 1 cm^2 of the formulation with Topiramate were applied to the other shaved scalp area.
(§2) After the 15th application of formulations with and without the modulation bioactive agent, a final picture was taken, the growth rate of the hairs was measured, and some hairs were plucked for further tests.
The curvature index was determined after the clinical cosmetic study conclusion, using hairs collected from the scalp areas treated with and without the modulation bioactive agent in a formulation. The control was the hair collected from the scalp area treated with the formulation without the modulation bioactive ingredient.

Assay [2] deals with human scalp. Kind of assay: Pilot clinical study: hair melanin quantification after topical scalp application. The format is in vivo. The conditions noted are these: for visible effect on hair colour: after 5 weeks of treatment; for Effectiveness (% of volunteers) / Hair Melanin change (% of control), max.: 5 weeks, 3 times per week. On the procedure: All the results present on the following described examples were performed in a pilot clinical study with intervention of cosmetic products (RNEC number: 92938), not contested by the Portuguese Legal Competent Authorities.
This example discloses the treatment of human scalp with a formulation containing a modulation bioactive agent for lightening the hair.
The modulation bioactive agent used in this example was Rivastigmine hydrogen tartrate as lightening agent in a formulation containing water, a thickener agent with emulsifying properties - Lecigel™, a preservative agent - Euxyl® PE 9010, denaturing alcohol and Transcutol® CG.
The volunteers for the application test of the formulation with the modulation agent Rivastigmine hydrogen tartrate had black to medium brown hair.
Each volunteer received the formulation without the agent Rivastigmine hydrogen tartrate and the formulation with the agent Rivastigmine hydrogen tartrate.
as §1
The formulations with and without Rivastigmine were applied directly on scalp. Ten microliters per 1 cm^2 of the control formulation without Rivastigmine hydrogen tartrate were applied to one of the two shaved scalp areas while ten microliters per 1 cm^2 of the formulation with Rivastigmine hydrogen tartrate were applied to the other shaved scalp area.
After the 15th application of formulations with and without the modulation agent, a final picture was taken, the growth rate of the hairs was measured, and some hairs were plucked for further tests.
The hair melanin quantification process was performed after the clinical cosmetic study conclusion, using hairs collected from the scalp areas treated with and without Rivastigmine hydrogen tartrate in a formulation. The control means the hair collected from the scalp area treated with the formulation without Rivastigmine hydrogen tartrate.
In an embodiment, the method for quantifying melanin in hair was as described by Fernandes B. et al., 2016 [51]. Hair samples were digested in NaOH and the solutions obtained normalized to 1 mg/mL of hair. Complete oxidation of hair lysates was performed with hydrogen peroxide and melanin content in hair samples calculated by fluoresce spectroscopy using a standard curve generated by the fluorescence of oxidized melanin standards. Melanin change in hair treated with a formulation with Rivastigmine was calculated using the following mathematical formula: […]
This example discloses the treatment of human scalp with a formulation containing a modulation bioactive agent for darkening the hair.
In an embodiment, the bioactive agent used in this example was Dipyridamole as darkening agent in a formulation containing water, a thickener agent with emulsifying properties - Lecigel™, a preservative agent - Euxyl® PE 9010, denaturing alcohol and Transcutol® CG.
The volunteers for the application test of the formulation with the modulation bioactive agent Dipyridamole had blond hair of different shades.
Each volunteer received the formulation without the agent Dipyridamole and the formulation with the agent Dipyridamole.
In an embodiment, the formulations with and without Dipyridamole were applied directly on scalp. Ten microliters per 1 cm^2 of the control formulation without Dipyridamole were applied to one of the two shaved scalp areas while ten microliters per 1 cm^2 of the formulation with Dipyridamole were applied to the other shaved scalp area.
as §2
The hair melanin quantification process was performed after the clinical cosmetic study conclusion, using hairs collected from the scalp areas treated with and without Dipyridamole in a formulation. […]

Assay [3] has as its system human melanocytes (SK-MEL-23 cell line). Description: Intracellular melanin quantification in melanocytes treated in vitro. The class given is cell-based. The following applies: 10 µM dipyridamole, 1% (v/v) DMSO, 3 days, normalized by protein levels. The procedure: This example discloses an “in vitro” treatment of human melanocytes (SK-MEL-23 cell line) with a solution containing a modulation bioactive agent for darkening the skin.
In an embodiment, the bioactive agent used in this example was Dipyridamole as darkening agent in a solution containing water and DMSO.
Cells were seeded on 24-well plates at density of 9.0x10^4 cells/well and treated next day with 10 µM of dipyridamole and 1% (v/v) DMSO. In the control, cells were seeded on 24-well plates at density of 9.0x10^4 cells/well and treated next day with 1% (v/v) DMSO.
The intracellular melanin quantification was performed after 3 days. The method for quantifying melanin in hair was as described by Fernandes B. et al., 2016 [51]. The melanin contents were normalized by protein levels in each sample (DC Protein assay). Melanin change in cells treated with Dipyridamole was calculated using the following mathematical formula: […]

[4] abbreviates: Straightening, 0.25% w/w formulation, curly-haired volunteers.
[5] abbreviates: Curling, 1.75% w/w formulation, straight-haired volunteers.

Counter-ions that a name gives are not always drawn.

For `COc1ccc(OC)c(C(O)CNC(=O)CN)c1` (stereo not drawn) [Midodrine HCl, Midodrine hydrochloride], the “visible effect on hair shape” value in the assay with human scalp [1] (0.25% w/w formulation on scalp, very curly hair) is “induced a straightening effect”. Moreover, in the assay on human scalp [1] (Straightening, 0.25% w/w formulation on scalp, curly-haired volunteers), the “Effectiveness (% of volunteers)” value was 75.0%. In addition, in the assay with human scalp [1] (setting [4]), the “Hair shape change (% of control), max.” value is given as “+120.0%” and the “Hair shape change (% of control), mean” value is “+76.0%”.

Turning to `CC1(C)O[C@@H]2[C@@H](CO[C@@]3(COS(N)(=O)=O)OC(C)(C)O[C@@H]23)O1` [Topiramate], in the assay on human scalp [1] (1.75% w/w formulation on scalp, straight hair), the “visible effect on hair shape” value is “induced a curling effect”. Besides, the “Effectiveness (% of volunteers)” value in the assay on human scalp [1] (Curling, 1.75% w/w formulation on scalp, straight-haired volunteers) was determined as 83.3%. Moreover, in the assay on human scalp [1] (setting [5]), the “Hair shape change (% of control), max.” value is listed as -11.0% and the “Hair shape change (% of control), mean” value is listed as -10.0%.

`CCN(C)C(=O)Oc1cccc([C@H](C)N(C)C)c1` [Rivastigmine, Rivastigmine hydrogen tartrate]: the “visible effect on hair colour” value with human scalp [2] (0.2% w/w formulation on scalp) was “induced a lightening effect”. Further, the “Effectiveness (% of volunteers)” value in the assay with human scalp [2] (Lightening, 0.2% w/w formulation on scalp, black to medium brown hair) is 50.0 % of volunteers. In the assay on human scalp [2] (Lightening, 0.2% w/w formulation, black to medium brown hair), the “Hair Melanin change (% of control), max.” value is listed as -26.3%.

With `OCCN(CCO)c1nc(N2CCCCC2)c2nc(N(CCO)CCO)nc(N3CCCCC3)c2n1` [Dipyridamole], the “visible effect on hair colour” value with human scalp [2] (0.01% w/w formulation on scalp) was “induced a darkening effect”. Besides, the “Effectiveness (% of volunteers)” value in the assay with human scalp [2] (Darkening, 0.01% w/w formulation on scalp, blond hair) is given as 67.0 % of volunteers. Further, in the assay with human scalp [2] (Darkening, 0.01% w/w formulation, blond hair), the “Hair Melanin change (% of control), max.” value was “+57.9%”. For the same compound, the “increase in melanin production relative to the control experiment” value in assay [3] came out at 3.5 fold.

For the origin of these results see patent US20230248627A1, “COMPOSITION FOR HAIR FOLLICLE MODULATION, METHODS AND USES THEREOF” (priority 2020, published 2023).
